Here are results for twelve compounds from patent US20180162844A1, “CYCLOPROPANE DERIVATIVE AND DRUG CONTAINING SAME” (EA PHARMA CO., LTD., priority 2015, published 2018).

In the assay the target is T1, human TRPA1 (Homo sapiens, UniProt O75762).
T1 construct: full-length human TRPA1 gene was amplified; expressed in transfected cells; host or cells: Human embryonic kidney-derived 293T cells, transient transfection with pcDNA3.1/zeo(+) human TRPA1 expression plasmid
Description: Measurement of TRPA1 antagonist activity (intracellular calcium increase, allylisothiocyanate stimulation, 293T cells transfected with human TRPA1 expression plasmid). The format is cell-based. The note with it: 293T cells expressing human TRPA1, allylisothiocyanate stimulation, FLIPR Calcium4, test substance added 10 min before AITC, read-out: hTRPA1 IC50. As to the method: Experimental Example 1: Measurement of TRPA1 antagonist Activity
Human TRPA1 Expression Plasmid
Using cDNA encoding human TRPA1 (GenBank accession No. NM_007332) (manufactured by Kazusa DNA Research Institute, item No.: FHC07217) as a template, primer 1 (SEQ ID NO: 1) and primer 2 (SEQ ID NO: 2), PCR by PfuUltra High-Fidelity DNA Polymerase (Stratagene) was performed, and full-length human TRPA1 gene was amplified.
A recognition site (underlined) of restriction enzyme HindIII was added to the 5′ end of human TRPA1 gene, and XbaI site (underlined) was added to the 3′ end of human TRPA1 gene, and GTT of the template sequence was changed to termination codon TAG (bold). The obtained double stranded DNA was enzyme-digested with HindIII and XbaI, and introduced into a multicloning site of expression plasmid pcDNA3.1/zeo(+) (manufactured by Invitrogen) to give a human TRPA1 expression plasmid.
Human embryonic kidney-derived 293T cells were cultured in Dulbecco's Modified Eagle Medium containing 10% fetal bovine serum, 10 unit penicillin, and 10 μg streptomycin. One day before assay, 3×10^6 of 293T cells were plated on a petri dish having a diameter of 10 cm, and cultured in a CO2 incubator for 24 hr. OPTI-MEM I Reduced Serum Media (Invitrogen). (600 μL), Mirus TransIT-293 (Mirus Bio) (18 μL), and human TRPA1 expression plasmid (6 μg) were mixed, the total amount of the mixture was added to the cells on the petri dish to allow for gene transfer. The cells were recovered about for 8 hr later, plated on a poly-D-lysine coated 384 well black/clear bottom plate at 12,000 cells/well, and cultured overnight.
Measurement of Intracellular Calcium Increase
The medium was removed from the 384 well plate, calcium indicator (Molecular Device, trade name: FLIPR Calcium4 Assay Kit) dissolved in HBSS (Thermo Fisher Scientific) (pH 7.2) containing 20 mM HEPES was added (38 μL/well), and the cells were stained in a CO2 incubator for 1 hr. The 384 well plate was stood at room temperature for not less than 15 min, set on FDSS7000 (Hamamatsu Photonics K.K.), and a test substance solution was added at 10 μL/well. After 10 min, allylisothiocyanate solution (12 μL/well) was added, the relative fluorescence intensity was measured for 5 min after addition of the allylisothiocyanate solution.
Preparation of Test Substance Solution and Allylisothiocyanate Solution
A test substance solution was prepared to have a composition of HBSS (Thermo Fisher Scientific) (pH 7.2) containing 0.48% dimethyl sulfoxide, a test substance at 4.8-fold concentration of the evaluation concentration, 0.1% bovine serum albumin and 20 mM HEPES. An allylisothiocyanate solution was prepared to have a composition of HBSS (Thermo Fisher Scientific) (pH 7.2) containing 0.1% dimethyl sulfoxide, 100 μM allylisothiocyanate, 0.1% bovine serum albumin and 20 mM HEPES.
Calculation of Antagonist Activity
The activity rate of a test substance at each concentration was calculated, wherein the relative fluorescence intensity change of a well free of a test substance and containing allylisothiocyanate is 100% activity rate, and the relative fluorescence intensity change of a well free of a test substance and allylisothiocyanate is 0% activity rate. The inhibitory rate of a test substance at each concentration was calculated by subtracting the activity rate of the test substance from 100% activity rate, and the concentration of a test substance showing 50% inhibitory rate was calculated as IC50 from the sigmoid approximate curve by XLFit (idbs).
For orientation: Calcium flux is commonly read through the fluorescence of an indicator in the cells.

Setting [1] is: Comparative Examples (Table 8-2).

Like-named read-outs stand apart in the source and are kept apart here. Some results are limits rather than exact numbers.

T1 sequence (O75762 whole entry): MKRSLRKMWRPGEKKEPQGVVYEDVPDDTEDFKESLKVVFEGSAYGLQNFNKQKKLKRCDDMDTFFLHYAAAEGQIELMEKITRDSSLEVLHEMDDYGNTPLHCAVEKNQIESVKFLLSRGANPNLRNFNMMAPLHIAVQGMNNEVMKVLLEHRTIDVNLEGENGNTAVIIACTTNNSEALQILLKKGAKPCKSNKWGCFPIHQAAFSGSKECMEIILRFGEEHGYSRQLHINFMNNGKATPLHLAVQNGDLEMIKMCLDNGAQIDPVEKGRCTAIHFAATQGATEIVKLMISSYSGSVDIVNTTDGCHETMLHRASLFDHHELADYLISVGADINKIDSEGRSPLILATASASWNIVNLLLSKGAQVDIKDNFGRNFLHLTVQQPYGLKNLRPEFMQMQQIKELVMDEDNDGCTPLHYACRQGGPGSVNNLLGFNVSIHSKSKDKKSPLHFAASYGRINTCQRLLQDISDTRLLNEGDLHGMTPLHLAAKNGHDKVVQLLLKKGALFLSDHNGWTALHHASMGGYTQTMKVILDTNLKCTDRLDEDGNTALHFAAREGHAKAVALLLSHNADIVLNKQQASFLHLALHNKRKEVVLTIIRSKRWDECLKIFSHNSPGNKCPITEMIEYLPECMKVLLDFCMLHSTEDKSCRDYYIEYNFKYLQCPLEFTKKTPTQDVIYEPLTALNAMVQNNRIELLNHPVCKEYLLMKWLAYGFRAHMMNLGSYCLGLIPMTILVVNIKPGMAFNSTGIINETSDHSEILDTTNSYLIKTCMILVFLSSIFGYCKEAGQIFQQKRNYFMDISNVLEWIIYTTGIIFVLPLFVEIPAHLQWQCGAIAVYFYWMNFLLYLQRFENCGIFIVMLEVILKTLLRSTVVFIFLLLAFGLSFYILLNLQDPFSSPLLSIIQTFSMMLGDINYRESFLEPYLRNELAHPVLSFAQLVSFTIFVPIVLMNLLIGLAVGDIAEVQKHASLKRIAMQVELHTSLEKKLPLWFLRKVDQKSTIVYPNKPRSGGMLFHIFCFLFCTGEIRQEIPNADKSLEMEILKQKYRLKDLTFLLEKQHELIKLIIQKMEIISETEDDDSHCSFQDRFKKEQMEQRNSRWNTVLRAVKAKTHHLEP

Usually IC50 stands for the concentration at which inhibition is half-maximal. Take `CC(C)N(C1(C(=O)NCc2cc(-c3ccc(C(F)(F)F)nc3)ncn2)CC1)S(=O)(=O)c1cc2ccccc2o1` [Example 25, 1-[benzofuran-2-ylsulfonyl(isopropyl)amino]-N-[[6-[6-(trifluoromethyl)-3-pyridyl]pyrimidin-4-yl]methyl]cyclopropanecarboxamide]: the IC50 (Examples (Table 8-1)) came out at 8.1 nM. Same read-out and setting: the same measure for `CN(C1(C(=O)NCc2cc(-c3ccc(C(F)(F)F)cn3)ccn2)CC1)S(=O)(=O)c1cc2cc(F)ccc2o1` [Example 29, 1-[(5-fluorobenzofuran-2-yl)sulfonyl-methyl-amino]-N-[[4-[5-(trifluoromethyl)-2-pyridyl]-2-pyridyl]methyl]-cyclopropanecarboxamide]: 1.2 nM. For `CN(C)c1nc(CNC(=O)C2(NS(=O)(=O)c3cc4cc(F)ccc4o3)CC2)cc(-c2ccc(C(F)(F)F)cc2)n1` [Example 19], for the setting “Examples (Table 8-1)”, the IC50 came out at 38 nM. The same measure, in the same setting: next, `O=C(NCc1cc(-c2ccc(C(F)(F)F)cn2)cnn1)C1(NS(=O)(=O)c2cc3cc(F)ccc3o2)CC1` [Example 17, 1-[(5-fluorobenzofuran-2-yl)sulfonylamino]-N-[[5-[5-(trifluoromethyl)-2-pyridyl]pyridazin-3-yl]methyl]cyclopropanecarboxamide]: 240 nM; `O=C(NCc1ccc(O)c(-c2ccc(C(F)(F)F)cn2)c1)C1(NS(=O)(=O)c2cc3cc(F)ccc3o2)CC1` [Example 18, 1-[(5-fluorobenzofuran-2-yl)sulfonylamino]-N-[[4-hydroxy-3-[5-(trifluoromethyl)-2-pyridyl]phenyl]methyl]-cyclopropanecarboxamide]: 25 nM.

Regarding `O=C(NCc1cc(-c2ccc(C(F)(F)F)cc2)nc(N2CCCC2)c1)C1(NS(=O)(=O)c2ccc(Cl)s2)CC1` [Comparative Example 4, 1-[(5-chloro-2-thienyl)sulfonylamino]-N-[[2-pyrrolidin-1-yl-6-[4-(trifluoromethyl)phenyl]-4-pyridyl]methyl]cyclopropanecarboxamide, reference compound], the IC50 under setting [1] is above 1000 nM.

In the case of `CC(C)N(C1(C(=O)NCc2cc(-c3ccc(C(F)(F)F)nc3)ncn2)CC1)S(=O)(=O)c1cc2cc(F)ccc2o1` [Example 24, 1-[(5-fluorobenzofuran-2-yl)sulfonyl-isopropyl-amino]-N-[[6-[6-(trifluoromethyl)-3-pyridyl]pyrimidin-4-yl]methyl]cyclopropanecarboxamide], for the setting “Examples (Table 8-1)”, the IC50 came to 3.3 nM. Same read-out and setting: next, `O=C(NCc1cc(-c2ccc(C(F)(F)F)cc2)nc(N2CCCC2)c1)C1(NS(=O)(=O)c2cc3cc(F)ccc3o2)CC1` [Example 27, 1-[(5-fluorobenzofuran-2-yl)sulfonylamino]-N-[[2-pyrrolidin-1-yl-6-[4-(trifluoromethyl)phenyl]-4-pyridyl]methyl]-cyclopropanecarboxamide]: 86 nM. Same read-out and setting: the same measure for `O=C(NCc1cc(-c2ccc(OC(F)(F)F)cc2)ncn1)C1(NS(=O)(=O)c2cc3cc(F)ccc3o2)CC1` [Example 11, 1-[(5-fluorobenzofuran-2-yl)sulfonylamino]-N-[[6-[4-(trifluoromethoxy)phenyl]pyrimidin-4-yl]methyl]cyclopropanecarboxamide]: 40 nM; for `O=C(NCc1cnnc(-c2ccc(C(F)(F)F)cc2)c1)C1(NS(=O)(=O)c2cc3cc(F)ccc3o2)CC1` [Example 15, 1-[(5-fluorobenzofuran-2-yl)sulfonylamino]-N-[[6-[4-(trifluoromethyl)phenyl]pyridazin-4-yl]methyl]cyclopropanecarboxamide]: 310 nM; for `O=C(NCc1cc(-c2cnc(C(F)(F)F)nc2)ncn1)C1(NS(=O)(=O)c2cc3cc(F)ccc3o2)CC1` [Example 14, 1-[(5-fluorobenzofuran-2-yl)sulfonylamino]-N-[[6-[2-(trifluoromethyl)pyrimidin-5-yl]pyrimidin-4-yl]methyl]cyclopropanecarboxamide]: 47 nM.

On to `CC(C)N(C1(C(=O)NCc2cc(-c3ccc(C(F)(F)F)nc3)ncn2)CC1)S(=O)(=O)c1ccc(F)cc1` [Comparative Example 1, 1-[(4-fluorophenyl)sulfonyl-isopropyl-amino]-N-[[6-[6-(trifluoromethyl)-3-pyridyl]pyrimidin-4-yl]methyl]cyclopropanecarboxamide, reference compound], for which the IC50 under setting [1] was 180 nM.
